In US20120165319A1, “INHIBITORS OF INTERLEUKIN-1 BETA CONVERTING ENZYME” (VERTEX PHARMACEUTICALS INCORPORATED, priority 1995, published 2012) one finds Ki and IC50 data, which are given here for 15 compounds.

Like-named read-outs stand apart in the source and are kept apart here. Some results are limits rather than exact numbers.

For assay [1], the target named is T1, ICE (Homo sapiens, UniProt P29466).
T1 sequence (P29466 120-297 limits assumed): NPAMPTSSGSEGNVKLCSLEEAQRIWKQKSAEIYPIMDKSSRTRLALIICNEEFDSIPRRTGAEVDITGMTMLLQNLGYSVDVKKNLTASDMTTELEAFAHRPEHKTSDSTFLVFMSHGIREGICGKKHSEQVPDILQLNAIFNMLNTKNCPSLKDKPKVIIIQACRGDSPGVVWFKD
T1 sequence (P29466 317-404 limits assumed): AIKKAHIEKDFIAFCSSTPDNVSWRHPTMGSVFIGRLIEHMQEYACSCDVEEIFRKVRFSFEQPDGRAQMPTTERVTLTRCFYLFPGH
As to the kind of experiment: Enzyme assay with UV-visible substrate (visible ICE assay, Succinyl-Tyr-Val-Ala-Asp-pNitroanilide). It is filed as biochemical. In a few lines:
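Human ICE was preincubated with inhibitor in DMSO and buffer for 15 min at room temperature, then succinyl-Tyr-Val-Ala-Asp-pNA was added. pNA release was followed at 405-603 nm for 20 min at 37° C. Ki and inhibition mode came from fitting rates to standard kinetic equations.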

In assay [2] the test system is IL-1β, human peripheral blood mononuclear cells (PBMC). As to the kind of experiment: PBMC cell assay: IL-1β assay with human PBMC or enriched adherent mononuclear cells, LPS-stimulated. The conditions noted are these: Homo sapiens, PBMC. It is filed as cell-based. An excerpt:
IL-1β Assay with a Mixed Population of Human Peripheral Blood Mononuclear Cells (PBMC) or Enriched Adherent Mononuclear Cells
Processing of pre-IL-1β by ICE can be measured in cell culture using a variety of cell sources. Human PBMC obtained from healthy donors provides a mixed population of lymphocyte subtypes and mononuclear cells that produce a spectrum of interleukins and cytokines in response to many classes of physiological stimulators. Adherent mononuclear cells from PBMC provides an enriched source of normal monocytes for selective studies of cytokine production by activated cells.
An initial dilution series of test compound in DMSO or ethanol is prepared, with a subsequent dilution into RPMI-10% FBS media (containing 2 mM L-glutamine, 10 mM HEPES, 50 U and 50 ug/ml pen/strep) respectively to yield drugs at 4× the final test concentration containing 0.4% DMSO or 0.4% ethanol. The final concentration of DMSO is 0.1% for all drug dilutions. A concentration titration which brackets the apparent Ki for a test compound determined in an ICE inhibition assay is generally used for the primary compound screen.
Generally 5-6 compound dilutions are tested and the cellular component of the assay is performed in duplicate, with duplicate ELISA determinations on each cell culture supernatant.
PBMC Isolation and IL-1 Assay:
Buffy coat cells isolated from one pint human blood (yielding 40-45 ml final volume plasma plus cells) are diluted with media to 80 ml and LeukoPREP separation tubes (Becton Dickinson) are each overlaid with 10 ml of cell suspension. After 15 min centrifugation at 1500-1800×g, the plasma/media layer is aspirated and then the mononuclear cell layer is collected with a Pasteur pipette and transferred to a 15 ml conical centrifuge tube (Corning). Media is added to bring the volume to 15 ml, gently mix the cells by inversion and centrifuge at 300×g for 15 min. Resuspend the PBMC pellet in a small volume of media, count cells and adjust to 6×10^6 cells/ml.
For the cellular assay, 1.0 ml of the cell suspension is added to each well of a 24-well flat bottom tissue culture plate (Corning), 0.5 ml test compound dilution and 0.5 ml LPS solution (Sigma #L-3012; 20 ng/ml solution prepared in complete RPMI media; final LPS concentration 5 ng/ml). The 0.5 ml additions of test compound and LPS are usually sufficient to mix the contents of the wells. Three control mixtures are run per experiment, with either LPS alone, solvent vehicle control, and/or additional media to adjust the final culture volume to 2.0 ml. The cell cultures are incubated for 16-18 hr at 37° C. in the presence of 5% CO2.
At the end of the incubation period, cells are harvested and transferred to 15 ml conical centrifuge tubes. After centrifugation for 10 min at 200×g, supernatants are harvested and transferred to 1.5 ml Eppendorf tubes. It may be noted that the cell pellet may be utilized for a biochemical evaluation of pre-IL-1β and/or mature IL-1β content in cytosol extracts by western blotting or ELISA with pre-IL-1β specific antisera.
Isolation of Adherent Mononuclear Cells:
PBMC are isolated and prepared as described above. Media (1.0 ml) is first added to wells followed by 0.5 ml of the PBMC suspension. After a one hour incubation, plates are gently shaken and nonadherent cells aspirated from each well. Wells are then gently washed three times with 1.0 ml of media and final resuspended in 1.0 ml media. The enrichment for adherent cells generally yields 2.5−3.0×10^5 cells per well. The addition of test compounds, LPS, cell incubation conditions and processing of supernatants proceeds as described above.
We have used Quantikine kits (R&D Systems) for measurement of mature IL-1β. Assays are performed according to the manufacturer's directions. Mature IL-1β levels of about 1-3 ng/ml in both PBMC and adherent mononuclear cell positive controls are observed. […]

Assay [3] has as its system IL-1β, human whole blood. Briefly: Whole blood assay for IL-1β production. It is filed as cell-based. The note with it: read-out: Whole human blood IC50. As to the method:
The whole blood assay is a simple method for measuring the production of IL-1b (or other cytokines) and the activity of potential inhibitors. The complexity of this assay system, with its full complement of lymphoid and inflammatory cell types, spectrum of plasma proteins and red blood cells is an ideal in vitro representation of human in vivo physiologic conditions.
Pyrogen-free syringes (˜30 cc) Pyrogen-free sterile vacuum tubes containing lyophilized Na2EDTA (4.5 mg/10 ml tube) Human whole blood sample (˜30-50 cc) 1.5 ml eppendorf tubes Test compound stock solutions (˜25 mM in DMSO or other solvent) Endotoxin-free sodium chloride solution (0.9%) and HBSS Lipopolysaccharide (Sigma; Cat. # L-3012) stock solution at 1 mg/ml in HBSS
IL-1β ELISA Kit (R & D Systems; Cat # DLB50)
TNFα ELISA Kit (R & D Systems; Cat # DTA50)
Whole Blood Assay Experimental Procedure:
Set incubator or water bath at 30° C. Aliquot 0.25 ml of blood into 1.5 ml eppendorf tubes. Note: be sure to invert the whole blood sample tubes after every two aliquots. Differences in replicates may result if the cells sediment and are not uniformly suspended. Use of a positive displacement pipette will also minimize differences between replicate aliquots.
Prepare drug dilutions in sterile pyrogen-free saline by serial dilution. A dilution series which brackets the apparent Ki for a test compound determined in an ICE inhibition assay is generally used for the primary compound screen.
Add 25 μl test compound dilution or vehicle control and gently mix the sample. Then add 5.0 μl LPS solution (250 ng/ml stocked prepared fresh: 5.0 ng/ml final concentration LPS), and mix again. Incubate the tubes at 30° C. in a water bath for 16-18 hr with occasional mixing. Alternatively, the tubes can be placed in a rotator set at 4 rpm for the same incubation period. This assay should be set up in duplicate or triplicate with the following controls: negative control—no LPS; positive control—no test inhibitor; vehicle control—the highest concentration of DMSO or compound solvent used in the experiment. Additional saline is added to all control tubes to normalize volumes for both control and experimental whole blood test samples
After the incubation period, whole blood samples are centrifuged for 10 minutes at ˜2000 rpm in the microfuge, plasma is transferred to a fresh microfuge tube and centrifuged at 1000×g to pellet residual platelets if necessary. Plasma samples may be stored frozen at −70° C. prior to assay for cytokine levels by ELISA.
We have used R & D Systems (614 McKinley Place N.E. Minneapolis, Minn. 55413) Quantikine kits for measurement of IL-1β and TNF-α. The assays are performed according to the manufacturer's directions.
We have observed IL-1β levels of ˜1-5 ng/ml in positive controls among a range of individuals. A 1:200 dilution of plasma for all samples has been sufficient in our experiments for ELISA results to fall on the linear range of the ELISA standard curves. It may be necessary to optimize standard dilutions if you observe differences in the whole blood assay. Nerad, J. L. et al., J. Leukocyte Biol., 52, pp. 687-692 (1992).

The mark [4] stands for this setting: * = values obtained upon reassay.
Where [5] appears, read: Homo sapiens, * = values obtained upon reassay.

`O=C[C@H](CC(=O)O)NC(=O)[C@@H]1CCCN2C(=O)CC[C@H](NC(=O)c3ccc(OC(=O)c4ccc(O)cc4)cc3)C(=O)N12` [Compound 457] returned a Ki in assay [1] (Table 5) of 0.0062 µM. Moreover, the IC50 in assay [2] (setting [4]) turned out to be 2 µM; in assay [3] (setting [5]), 3.5 µM.

Consider `CC(=O)N1C[C@H](NC(=O)c2nccc3ccccc23)C(=O)N(CC(=O)N[C@H](C=O)CC(=O)O)c2ccccc21` [Compound 620], for which affinity in assay [1] (Table 5) was put at a Ki of 0.035 µM. The IC50 stood at 1 µM in assay [2] (setting [4]) and 19 µM in assay [3] (setting [5]).

Consider `Cc1cc(C(=O)N[C@H]2CNc3ccccc3N(CC(=O)N[C@H](C=O)CC(=O)O)C2=O)cc(C)c1O` [Compound 727], for which the affinity in assay [1] (Table 27), expressed as Ki, was 0.05 µM. In assay [3] (Homo sapiens, Table 27), the IC50 was 2.3 µM.

Take `O=C[C@H](CC(=O)O)NC(=O)CN1C(=O)[C@@H](NC(=O)c2nccc3ccccc23)CN(C=O)c2ccccc21` [Compound 698, (3S)-3-[(3S)-2-oxo-3-isoquinolin-1-oylamino-5-formyl-2,3,4,5-tetrahydro-1H-1,5-benzodiazepine-1-acetylamino]-4-oxobutyric acid]: affinity in assay [1] (Table 27) was put at a Ki of 0.018 µM. In assay [3] (Homo sapiens, Table 27), the IC50 is 13.5 µM.

In turn, `CC(=O)N1C[C@H](NC(=O)c2ccccc2)C(=O)N(CC(=O)N[C@H](C=O)CC(=O)O)c2c(C)cc(C)cc21` [Compound 605o, (3S)-3-[(3S)-2-Oxo-3-benzoylamino-5-acetyl-2,3,4,5-tetrahydro-7,9-dimethyl-1H-1,5-benzodiazepin-1-acetylamino]-4-oxo-butyric acid] came in with an inhibition constant Ki in assay [1] (Table 5) of 0.072 µM. Further, the IC50 in assay [3] (setting [5]) came to 18 µM.

For `CS(=O)(=O)CC(=O)N1C[C@H](NC(=O)c2nccc3ccccc23)C(=O)N(CC(=O)N[C@H](C=O)CC(=O)O)c2ccccc21` [Compound 735], in assay [1] (Table 27), the affinity, expressed as Ki, was 0.006 µM. Besides, the IC50 in assay [3] (Homo sapiens, Table 27) was determined as 10 µM.

`CCOC(=O)N1C[C@H](NC(=O)c2cc(C)c(O)c(C)c2)C(=O)N(CC(=O)N[C@H](C=O)CC(=O)O)c2ccccc21` [Compound 722] showed a Ki in assay [1] (Table 27) of 0.005 µM. Moreover, the IC50 in assay [3] (Homo sapiens, Table 27) came out at 5 µM.

With `COCC(=O)N1C[C@H](NC(=O)c2cc(C)c(O)c(C)c2)C(=O)N(CC(=O)N[C@H](C=O)CC(=O)O)c2ccc(F)cc21` [Compound 689b-1, (3S)-3-[(3S)-2-Oxo-3-(3,5-dimethyl-4-hydroxybenzoyl)amino-5-methoxyacetyl-2,3,4,5-tetrahydro-7-fluoro-1H-1,5-benzodiazepine-1-acetylamino]-4-oxobutyric acid], the inhibitory constant (Ki) in assay [1] (Table 27) was 0.0035 µM. Also, the IC50 in assay [3] (Homo sapiens, Table 27) stood at 2.7 µM.

Compound `Cc1cc(C(=O)N[C@H]2CN(C(=O)COc3ccccc3)c3ccccc3N(CC(=O)N[C@H](C=O)CC(=O)O)C2=O)cc(C)c1O` [Compound 721] returned a Ki in assay [1] (Table 27) of 0.0013 µM. The IC50 in assay [3] (Homo sapiens, Table 27) came out at 5 µM.

The compound `CCC(=O)N1C[C@H](NC(=O)c2cc(C)c(O)c(C)c2)C(=O)N(CC(=O)N[C@H](C=O)CC(=O)O)c2ccccc21` [Compound 724] registered a Ki in assay [1] (Table 27) of 0.002 µM. Moreover, the IC50 in assay [3] (Homo sapiens, Table 27) was determined as 1.8 µM.

Turning to `COc1cc(C(=O)N[C@H]2CN(C(=O)CO)c3ccccc3N(CC(=O)N[C@H](C=O)CC(=O)O)C2=O)ccc1O` [Compound 733], affinity in assay [1] (Table 27) was put at a Ki of 0.005 µM. In addition, the IC50 in assay [3] (Homo sapiens, Table 27) came to 1.5 µM.

Take `COc1cccc2oc(C(=O)[C@H](CC(=O)O)NC(=O)[C@@H]3CCCN4C(=O)CC[C@H](NC(=O)CCc5ccccc5)C(=O)N34)nc12` [Compound 135b]: the 50% inhibitory concentration (IC50) in assay [2] (setting [4]) was determined as 1.6 µM; in assay [3] (setting [5]), 1.7 µM.

As to `CC(=O)N[C@H]1CCC(=O)N2CCC[C@@H](C(=O)N[C@@H](CC(=O)O)C(=O)COc3cccnc3)N2C1=O` [Compound 283d, [3S(1S,9S)]3-(9-Acetamido-6,10-dioxo-1,2,3,4,7,8,9,10-octahydro-6H-pyridazino[1,2-a][1,2]diazepine-1-carboxamido)-4-oxo-5-(3-pyridyloxy)pentanoic acid], the IC50 in assay [2] (Table 17) is above 8 µM; in assay [3] (Homo sapiens, Table 17), 10 µM.

Take `CC(C)(C)OC(=O)C[C@@H](C=NOCCc1ccccc1)NC(=O)[C@@H]1CCCN2C(=O)CC[C@H](NC(=O)c3ccccc3)C(=O)N12` [Compound 307b, [3S(1S,9S)3-(9-Benzoylamino-6,10-dioxo-1,2,3,4,7,8,9,10-octahydro-6H-pyridazino-[1,2-a][1,2]diazapine-1-carboxamido)-amino]-4-oxobutanoic acid t-butyl ester, O-(2-(phenyl)ethyl)oxime]: the Ki in assay [1] (Table 5) worked out at 0.165 µM. The IC50 in assay [3] (setting [4]) was determined as 14 µM.

With `Cc1cc(C(=O)N[C@H]2CN(C(=O)C(C)C)c3ccccc3N(CC(=O)N[C@H](C=O)CC(=O)O)C2=O)cc(C)c1O` [Compound 725], the affinity in assay [1] (Table 27), expressed as Ki, was 0.0037 µM. In addition, the IC50 in assay [3] (Homo sapiens, Table 27) came out at 3 µM.
